Assays:
[1] = system: IL6, CXCL1, CXCL10, IL1β; experiment: SASP mRNA qRT-PCR in doxorubicin-aged mice (Example 8-6); assay type: in vivo, C57BL6J mice; details: doxorubicin 10 mg/kg i.p., untreated = 1
[2] = system: SAOS-2; experiment: SA-β-gal staining of doxorubicin-treated SAOS-2 cells (Example 2-1); assay type: cell-based, human; details: doxorubicin-induced aging as in Example 1-1
[3] = system: IL6; experiment: serum IL6 ELISA in doxorubicin-aged mice (Example 8-5); assay type: in vivo, C57BL6J mice; details: mice, doxorubicin 10 mg/kg i.p., untreated = 1
Procedure: (§1) After adapting 8-week-old male C57BL6J mice (purchased from KRIBB Laboratory Animal Resource Center) to the experimental environment for 1 week, doxorubicin, an anticancer drug, was administered intraperitoneally at a concentration of 10 mg/kg, and mice that were induced to age for more than 10 days were assigned to an experimental group and a control group. LX-112 was mixed with 0.5% CMC-Na solution (purchased from Sigma) and administered orally at a concentration of 70 mg/kg daily for 21 days. The control group was administered only the solution in the same volume. After drug administration was completed, the method described in each Example below was performed.
The amount of IL6, an aging-related inflammation secretory factor (SASP), was measured in serum collected from mice in the same manner as in Example 7-5 using an enzyme-linked immunosorbent assay (ELISA Kit, purchased from R&D Systems).

[4] = system: SA-β-gal; experiment: SA-β-gal staining of tissues of doxorubicin-aged mice (Example 8-3); assay type: in vivo, C57BL6J mice; details: stained area; mice, doxorubicin 10 mg/kg i.p.; untreated = 1
Procedure: as §1
Mice were sacrificed in the same method in described in Example 7-3, and tissue sections were prepared from the organ tissues of each region. SA-β-gal, an aging marker was stained. […] FIG. 3 is a photographic result of staining of adipose tissue.

[5] = system: p16, p21; experiment: p16 and p21 mRNA qRT-PCR in doxorubicin-aged mice (Example 8-2); assay type: in vivo, C57BL6J mice; details: mice, doxorubicin 10 mg/kg i.p.; untreated = 1
Procedure: as §1
The mouse was sacrificed in the same manner as in Example 7-2, RNA was extracted from the organ tissue of each region, and qRT-PCR was performed and analyzed using the synthesized cDNA. […] Table 37 calculates the mRNA amounts of p16 and p21 after aging was induced by treatment with the anticancer drug as 100% and compared them with the mRNA amounts of p16 and p21 after treatment with LX-112.

[6] = system: lipofuscin; experiment: lipofuscin staining of muscle of doxorubicin-aged mice (Example 8-4); assay type: in vivo, C57BL6J mice; details: stained area; mice, doxorubicin 10 mg/kg i.p.; untreated = 1
Procedure: as §1
Mice were sacrificed in the same manner as in Example 7-4, and tissue sections were prepared from muscle tissue. Lipofuscin, an aging-related degenerative marker was stained.

[7] = system: IL6, CXCL1, CXCL10, IL1β; experiment: SASP mRNA qRT-PCR in doxorubicin-aged mice (Example 8-6); assay type: in vivo, C57BL6J mice; details: mice, doxorubicin 10 mg/kg i.p.; untreated = 1
Procedure: as §1
Using cDNA synthesized in the same manner as Example 7-6, qRT-PCR was performed and analyzed for aging-related inflammation and fibrosis secretory factors (SASP) such as IL6, CXCL1, CXCL10, and IL1β. […] Table 45 calculates the mRNA amount of each factor after aging was induced by treatment with the anticancer drug as 100% and compared it with the mRNA amount of each factor after treatment with LX-112.

[8] = system: foreskin cells; experiment: SA-β-gal staining of doxorubicin-treated foreskin cells (Example 1-1); assay type: cell-based, human; details: proportion of SA-β-gal stained cells; doxorubicin 250 nM 24 h + 7 days
Procedure: Specifically, foreskin cells (source: Chungnam National University College of Medicine) derived from humans were cultured in a designated medium (Iscove's Modified Dulbecco's Medium, source: ATCC; 10% FBS, source: GenDEPOT; 100 U/ml Penicillin & Streptomycin, source: Invitrogen), then treated with doxorubicin (DOX) dissolved in dimethyl sulfoxide (DMSO) at a concentration of 250 nM for 24 hours, and further cultured for 7 days to induce aging. […] To measure the proportion of aged cells, cells treated with doxorubicin and the control group were inoculated into a 24 well plate and stabilized for 24 hours. Then SA-β-gal, a marker related to aging, was stained using a kit (purchased from Cell Signaling Technology), and the proportion of senescent cells having the stained SA-β-gal was measured using an optical microscope.

[9] = fatigue/weakness tests and body weight in doxorubicin-aged mice (Example 8-7); assay type: in vivo, C57BL6J mice; details: mice
Procedure: as §1
In the same way as Example 7-7, in order to analyze fatigue and weakness that occur as a side effect due to treatment with anticancer drugs in mice, activity evaluation (open field test), endurance evaluation (wire hanging test), and muscle strength and grip strength test (grip strength test) were performed. […] In Table 47, the amount of each evaluation after aging was induced by treatment with the anticancer drug was calculated as 100% and compared it with the amount of each evaluation after treatment with LX-112.

[10] = system: AST, ALT; experiment: serum AST and ALT in doxorubicin-aged mice (Example 8-8); assay type: in vivo, C57BL6J mice; details: mice, doxorubicin 10 mg/kg i.p., untreated = 1
Procedure: as §1
In the same manner as in Example 7-5, the amounts of AST (aspartate aminotransferase) and ALT (alanine transaminase) released into the blood during liver damage were measured by spectrophotometry in the serum collected from mice using a kit (purchased from Sigma) according to the method described in the manual. […] Table 50 calculates the amount of each factor after aging was induced by treatment with the anticancer drug as 100% and compared it with the amount of each factor after treatment with LX-112.

[11] = system: SAOS-2; experiment: senescent SAOS-2 tumor size in mice (Example 2-3); assay type: in vivo, BALB/c nude mice; details: doxorubicin 10 mg/kg i.p.; after 10 days LX-112 100 mg/kg oral daily 21 days or repeated doxorubicin
Procedure: After 7-week-old male BALB/c nude mice (purchased from KRIBB Laboratory Animal Resource Center) were adapted to the experimental environment for one week, the mice were randomized into an experimental group and a control group. SAOS-2 (10^6 cells), a human osteosarcoma cancer cell line cultured in the same manner as Example 2-1, was mixed with PBS (purchased from Welgene) and then anesthetized using 2% isoflurane (purchased from Sigma). It was administered subcutaneously to mice. When the size of the tumor reached about […], doxorubicin was mixed at a concentration of 10 mg/kg in a 1:1 solution of distilled water and PBS (pH 7.2) and administered intraperitoneally to induce tumor aging. After 10 days, LX-112 mixed with 0.5% CMC-Na solution (purchased from Sigma) at a concentration of 100 mg/kg was orally administered daily for 21 days, and the size of the tumor was measured. The control group was repeatedly administered a solution mixed with doxorubicin, and then the size of the tumor was measured.

[12] = system: SAOS-2; experiment: CellTiter-Glo cell viability of senescent SAOS-2 cancer cells (Example 2-2); assay type: cell-based, human
Procedure: The standard for treating various cancers, including osteosarcoma, is repeated chemotherapy. Accordingly, aging was induced in SAOS-2 in the same manner as in Example 2-1, and then (i) treated again with doxorubicin (DOX→DOX) or (ii) treated with the LX-112 (5 μM) composition (DOX→LX-112).

[13] = Table 46, doxorubicin 10 mg/kg i.p.

COc1cccc2c1C(=O)c1c(O)c3c(c(O)c1C2=O)C[C@@](O)(C(=O)CO)C[C@@H]3O[C@H]1C[C@H](N)[C@H](O)[C@H](C)O1 [DOX, doxorubicin, reference compound]
mRNA (Fold) CXCL1, Liver [1]: 3 (±0.9) Fold | mRNA (Fold) CXCL1, eWAT [1]: 1.3 (±0.4)^ Fold | mRNA (Fold) CXCL10, eWAT [1]: 3 (±1.2) Fold | mRNA (Fold) IL1β, Liver [1]: 1.6 (±0.3) Fold | mRNA (Fold) IL1β, eWAT [1]: 1.6 (±0.2) Fold | mRNA (Fold) IL6, Liver [1]: 1.8 (±0.3) Fold | SA-β-gal (%) [2]: 66 (±5) % | IL6 (Fold) [3]: 11.7 (±0.5) Fold | SA-β-gal (Fold) Kidney [4]: 4.1 (±1.5) Fold | SA-β-gal (Fold) Liver [4]: 3.7 (±0.9) Fold | SA-β-gal (Fold) Lung [4]: 1.3 (±0.4) Fold | SA-β-gal (Fold) eWAT [4]: 4.2 (±0.9) Fold | p16 mRNA (Fold) Kidney [5]: 1.3 (±0.3) Fold | p16 mRNA (Fold) Liver [5]: 2.6 (±0.8) Fold | p16 mRNA (Fold) eWAT [5]: 3.2 (±1.2)^ Fold | p21 mRNA (Fold) Kidney [5]: 2.6 (±2.1) Fold | p21 mRNA (Fold) Liver [5]: 3.8 (±2.3) Fold | p21 mRNA (Fold) eWAT [5]: 3.9 (±3) Fold | Lipofuscin (Fold) Muscle [6]: 2.2 (±0.5) Fold | mRNA (Fold) CXCL10, Liver [7]: 2.6 (±0.9)^ Fold | mRNA (Fold) IL6, eWAT [7]: 3.2 (±0.3) Fold | SA-β-gal (%) [8]: 90 (±7) % | Grip Strength Test Strength (N) [9, 13]: 0.7 (±0.1) N | Open Field Test Time in Center (%) [9, 13]: 4.9 (±2.2) % | Wire Hanging Test Time (Sec) [9, 13]: 32 (±11) Sec | Mean Body Weight (g) ([9]; doxorubicin 10 mg/kg i.p. without or with LX-112 70 mg/kg oral daily 21 days): 21.3 (±2.6) g | ALT (Fold) [10]: 1.4 (±0.5) Fold | AST (Fold) [10]: 1.3 (±0.0) Fold | Tumor Diameter (mm) [11]: 15.4 (±1.2) mm | Survival (%) ([12]; DOX → DOX (senescent cells treated again with doxorubicin), 3 d): 72 (±7) % | Survival (%) ([12]; DOX → DOX, 7 d): 55 (±5) %

From patent US20250108036A1, “COMPOSITIONS FOR REMOVING SENESCENT CELLS AND USES THEREOF” (LIFECEUTIX CO., LTD., priority 2021, published 2025)
